Experimental data from ChEMBL document CHEMBL4507324 (2021).

Legend:
Conditions in all cases: Compound concentration 100.0 nM
[1] = target: Serine/threonine-protein kinase TNNI3K (Homo sapiens) (UniProt Q59H18)
[2] = target: Serine/threonine-protein kinase 3 (Homo sapiens) (UniProt Q13188)
[3] = tested on: Epidermal growth factor receptor (Homo sapiens), P00533 [UNDEFINED MUTATION]
[4] = target: Serine/threonine-protein kinase PLK4 (Homo sapiens) (UniProt O00444)
[5] = target: Tyrosine-protein kinase ABL2 (Homo sapiens) (UniProt P42684)
[6] = target: Serine/threonine-protein kinase SIK3 (Homo sapiens) (UniProt Q9Y2K2)
[7] = target: Receptor-type tyrosine-protein kinase FLT3 (Homo sapiens) (UniProt P36888)
[8] = target: Serine/threonine-protein kinase mTOR (Homo sapiens) (UniProt P42345)
[9] = target: Serine/threonine-protein kinase STK11 (Homo sapiens) (UniProt Q15831)
Serine/threonine-protein kinase STK11 (Homo sapiens), sequence (Q15831 whole entry): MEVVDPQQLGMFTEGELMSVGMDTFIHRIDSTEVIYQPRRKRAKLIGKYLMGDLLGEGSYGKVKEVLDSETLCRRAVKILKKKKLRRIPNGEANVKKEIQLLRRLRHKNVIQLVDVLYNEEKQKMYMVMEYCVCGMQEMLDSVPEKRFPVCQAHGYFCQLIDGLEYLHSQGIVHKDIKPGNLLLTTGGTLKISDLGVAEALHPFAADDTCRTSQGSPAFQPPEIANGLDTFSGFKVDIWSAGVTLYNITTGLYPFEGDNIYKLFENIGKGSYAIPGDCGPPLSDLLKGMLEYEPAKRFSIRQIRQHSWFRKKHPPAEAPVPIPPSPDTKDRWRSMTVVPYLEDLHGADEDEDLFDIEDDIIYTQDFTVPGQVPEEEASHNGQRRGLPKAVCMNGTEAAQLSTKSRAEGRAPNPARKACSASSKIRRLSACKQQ

[10] = target: Death-associated protein kinase 2 (Homo sapiens) (UniProt Q9UIK4)
Death-associated protein kinase 2 (Homo sapiens), sequence (Q9UIK4 whole entry, looked up): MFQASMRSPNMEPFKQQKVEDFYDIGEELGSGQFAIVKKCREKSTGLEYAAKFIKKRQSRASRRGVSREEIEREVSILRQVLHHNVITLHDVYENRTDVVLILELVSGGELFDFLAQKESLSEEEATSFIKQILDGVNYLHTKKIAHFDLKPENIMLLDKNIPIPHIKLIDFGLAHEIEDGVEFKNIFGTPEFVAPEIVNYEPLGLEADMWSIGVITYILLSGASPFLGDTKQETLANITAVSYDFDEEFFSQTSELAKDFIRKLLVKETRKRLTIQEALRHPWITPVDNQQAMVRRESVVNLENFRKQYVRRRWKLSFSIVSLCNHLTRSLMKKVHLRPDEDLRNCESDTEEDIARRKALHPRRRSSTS

[11] = target: Serine/threonine-protein kinase DCLK3 (Homo sapiens) (UniProt Q9C098)
[12] = tested on: Tyrosine-protein kinase ABL1 (Homo sapiens), P00519 [Q252H]
[13] = target: MAP kinase-activated protein kinase 5 (Homo sapiens) (UniProt Q8IW41)
MAP kinase-activated protein kinase 5 (Homo sapiens), sequence (Q8IW41 whole entry): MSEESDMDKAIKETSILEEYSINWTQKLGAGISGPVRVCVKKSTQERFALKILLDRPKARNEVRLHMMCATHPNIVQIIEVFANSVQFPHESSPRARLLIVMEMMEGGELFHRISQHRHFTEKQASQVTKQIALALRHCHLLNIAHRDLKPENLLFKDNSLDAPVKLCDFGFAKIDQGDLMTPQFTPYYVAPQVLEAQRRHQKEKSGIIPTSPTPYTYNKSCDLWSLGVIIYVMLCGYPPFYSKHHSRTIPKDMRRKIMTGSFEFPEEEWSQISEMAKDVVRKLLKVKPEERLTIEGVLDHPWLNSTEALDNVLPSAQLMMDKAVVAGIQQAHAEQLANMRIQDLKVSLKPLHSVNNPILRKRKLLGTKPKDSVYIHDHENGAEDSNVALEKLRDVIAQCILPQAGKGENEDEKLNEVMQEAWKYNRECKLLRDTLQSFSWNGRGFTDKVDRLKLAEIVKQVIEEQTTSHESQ

[14] = target: Fibroblast growth factor receptor 4 (Homo sapiens) (UniProt P22455)
[15] = target: Calcium/calmodulin-dependent protein kinase type II subunit delta (Homo sapiens) (UniProt Q13557)
[16] = target: Ephrin type-A receptor 6 (Homo sapiens) (UniProt Q9UF33)
[17] = target: Serine/threonine-protein kinase 17A (Homo sapiens) (UniProt Q9UEE5)
[18] = target: Tyrosine-protein kinase receptor Tie-1 (Homo sapiens) (UniProt P35590)
Tyrosine-protein kinase receptor Tie-1 (Homo sapiens), sequence (P35590 whole entry): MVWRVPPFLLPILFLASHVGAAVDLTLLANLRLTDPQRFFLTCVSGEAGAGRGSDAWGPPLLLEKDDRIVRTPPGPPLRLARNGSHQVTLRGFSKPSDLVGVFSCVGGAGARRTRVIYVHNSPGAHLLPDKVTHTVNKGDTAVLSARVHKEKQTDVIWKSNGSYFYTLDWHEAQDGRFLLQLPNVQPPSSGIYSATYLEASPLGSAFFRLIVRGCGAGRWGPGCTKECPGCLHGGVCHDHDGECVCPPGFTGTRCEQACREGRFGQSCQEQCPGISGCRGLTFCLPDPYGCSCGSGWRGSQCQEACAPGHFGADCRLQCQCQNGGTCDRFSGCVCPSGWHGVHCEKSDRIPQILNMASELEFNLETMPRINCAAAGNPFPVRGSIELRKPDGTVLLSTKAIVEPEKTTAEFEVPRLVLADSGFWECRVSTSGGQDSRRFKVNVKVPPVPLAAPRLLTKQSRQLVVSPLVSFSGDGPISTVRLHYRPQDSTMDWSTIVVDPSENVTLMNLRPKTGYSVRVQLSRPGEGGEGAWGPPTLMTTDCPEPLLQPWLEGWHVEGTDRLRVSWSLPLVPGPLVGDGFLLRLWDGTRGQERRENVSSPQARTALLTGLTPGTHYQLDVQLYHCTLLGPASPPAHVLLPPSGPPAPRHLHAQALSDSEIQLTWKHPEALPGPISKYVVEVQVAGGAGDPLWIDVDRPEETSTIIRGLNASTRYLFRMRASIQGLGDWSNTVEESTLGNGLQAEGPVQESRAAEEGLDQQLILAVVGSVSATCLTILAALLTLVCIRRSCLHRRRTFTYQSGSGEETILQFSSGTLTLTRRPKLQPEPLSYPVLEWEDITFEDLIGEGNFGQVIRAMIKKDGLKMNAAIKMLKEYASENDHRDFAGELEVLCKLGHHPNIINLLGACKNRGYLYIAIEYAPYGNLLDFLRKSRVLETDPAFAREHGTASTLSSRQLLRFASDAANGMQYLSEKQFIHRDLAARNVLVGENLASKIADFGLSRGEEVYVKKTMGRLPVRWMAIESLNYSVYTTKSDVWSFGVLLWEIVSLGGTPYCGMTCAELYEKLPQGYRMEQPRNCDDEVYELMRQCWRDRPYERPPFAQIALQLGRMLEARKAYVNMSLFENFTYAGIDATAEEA

[19] = target: Tyrosine-protein kinase Yes (Homo sapiens) (UniProt P07947)
[20] = target: Discoidin domain-containing receptor 2 (Homo sapiens) (UniProt Q16832)
[21] = target: Serine/threonine-protein kinase B-raf (Homo sapiens, UniProt P15056)
[22] = tested on: Epidermal growth factor receptor (Homo sapiens), P00533 [L858R,T790M]
[23] = target: Aurora kinase B (Homo sapiens) (UniProt Q96GD4)
[24] = target: Phosphatidylinositol 4-kinase beta (Homo sapiens) (UniProt Q9UBF8)
[25] = target: Ribosomal protein S6 kinase alpha-3 (Homo sapiens) (UniProt P51812)
[26] = target: Ribosomal protein S6 kinase alpha-1 (Homo sapiens) (UniProt Q15418)
[27] = target: Receptor-type tyrosine-protein kinase FLT3 (Homo sapiens) (UniProt P36888); remark: listed apart in the source
[28] = target: Homeodomain-interacting protein kinase 1 (Homo sapiens) (UniProt Q86Z02)
[29] = target: Dual specificity testis-specific protein kinase 1 (Homo sapiens) (UniProt Q15569)
[30] = tested on: Epidermal growth factor receptor (Homo sapiens), P00533 [G719S]
[31] = target: Receptor-interacting serine/threonine-protein kinase 1 (Homo sapiens) (UniProt Q13546)
[32] = tested on: Mast/stem cell growth factor receptor Kit (Homo sapiens), P10721 [V559D,V654A]
[33] = target: Fibroblast growth factor receptor 2 (Homo sapiens) (UniProt P21802)
[34] = target: Mitotic checkpoint serine/threonine-protein kinase BUB1 (Homo sapiens) (UniProt O43683)
[35] = target: Tyrosine-protein kinase receptor TYRO3 (Homo sapiens) (UniProt Q06418)
[36] = target: Dual specificity mitogen-activated protein kinase kinase 4 (Homo sapiens) (UniProt P45985)
[37] = target: Focal adhesion kinase 1 (Homo sapiens) (UniProt Q05397)
[38] = target: Serine/threonine-protein kinase Chk2 (Homo sapiens, UniProt O96017)
[39] = target: Serine/threonine-protein kinase LATS1 (Homo sapiens) (UniProt O95835)
[40] = tested on: Mast/stem cell growth factor receptor Kit (Homo sapiens), P10721 [D816V]
[41] = target: Ephrin type-A receptor 4 (Homo sapiens) (UniProt P54764)
[42] = target: Homeodomain-interacting protein kinase 3 (Homo sapiens) (UniProt Q9H422)
[43] = tested on: Mast/stem cell growth factor receptor Kit (Homo sapiens), P10721 [D816H]
Mast/stem cell growth factor receptor Kit (Homo sapiens), P10721 [D816H], sequence (P10721 whole entry D816H): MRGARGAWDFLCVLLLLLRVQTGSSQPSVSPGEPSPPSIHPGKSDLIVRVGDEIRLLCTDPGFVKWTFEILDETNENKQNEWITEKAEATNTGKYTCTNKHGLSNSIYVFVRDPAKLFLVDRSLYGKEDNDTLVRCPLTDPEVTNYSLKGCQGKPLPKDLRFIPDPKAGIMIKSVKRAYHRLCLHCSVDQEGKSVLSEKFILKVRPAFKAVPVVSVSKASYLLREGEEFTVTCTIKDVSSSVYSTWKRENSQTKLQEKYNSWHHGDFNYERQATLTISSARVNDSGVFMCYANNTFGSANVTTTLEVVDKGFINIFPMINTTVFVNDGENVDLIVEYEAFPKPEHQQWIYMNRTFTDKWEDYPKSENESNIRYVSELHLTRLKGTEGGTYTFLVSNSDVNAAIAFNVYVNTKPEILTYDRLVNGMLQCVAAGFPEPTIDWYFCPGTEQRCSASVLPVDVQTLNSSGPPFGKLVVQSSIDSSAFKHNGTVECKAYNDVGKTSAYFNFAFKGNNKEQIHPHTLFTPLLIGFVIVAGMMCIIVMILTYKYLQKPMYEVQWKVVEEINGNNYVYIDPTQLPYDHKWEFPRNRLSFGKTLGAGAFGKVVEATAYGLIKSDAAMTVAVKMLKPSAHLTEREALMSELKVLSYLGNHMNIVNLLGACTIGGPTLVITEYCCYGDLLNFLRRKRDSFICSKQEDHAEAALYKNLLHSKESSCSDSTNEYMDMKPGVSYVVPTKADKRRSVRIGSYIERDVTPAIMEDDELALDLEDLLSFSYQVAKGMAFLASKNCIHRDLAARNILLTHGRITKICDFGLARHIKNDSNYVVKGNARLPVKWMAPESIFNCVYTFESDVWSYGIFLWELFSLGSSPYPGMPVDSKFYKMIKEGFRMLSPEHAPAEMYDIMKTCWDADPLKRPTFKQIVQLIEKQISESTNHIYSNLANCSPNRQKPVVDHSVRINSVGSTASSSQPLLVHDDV

[44] = target: Mitogen-activated protein kinase 13 (Homo sapiens) (UniProt O15264)
[45] = tested on: Receptor-type tyrosine-protein kinase FLT3 (Homo sapiens), P36888 [D835H]

Serine/threonine-protein kinase PLK4 (Homo sapiens), sequence (O00444 whole entry): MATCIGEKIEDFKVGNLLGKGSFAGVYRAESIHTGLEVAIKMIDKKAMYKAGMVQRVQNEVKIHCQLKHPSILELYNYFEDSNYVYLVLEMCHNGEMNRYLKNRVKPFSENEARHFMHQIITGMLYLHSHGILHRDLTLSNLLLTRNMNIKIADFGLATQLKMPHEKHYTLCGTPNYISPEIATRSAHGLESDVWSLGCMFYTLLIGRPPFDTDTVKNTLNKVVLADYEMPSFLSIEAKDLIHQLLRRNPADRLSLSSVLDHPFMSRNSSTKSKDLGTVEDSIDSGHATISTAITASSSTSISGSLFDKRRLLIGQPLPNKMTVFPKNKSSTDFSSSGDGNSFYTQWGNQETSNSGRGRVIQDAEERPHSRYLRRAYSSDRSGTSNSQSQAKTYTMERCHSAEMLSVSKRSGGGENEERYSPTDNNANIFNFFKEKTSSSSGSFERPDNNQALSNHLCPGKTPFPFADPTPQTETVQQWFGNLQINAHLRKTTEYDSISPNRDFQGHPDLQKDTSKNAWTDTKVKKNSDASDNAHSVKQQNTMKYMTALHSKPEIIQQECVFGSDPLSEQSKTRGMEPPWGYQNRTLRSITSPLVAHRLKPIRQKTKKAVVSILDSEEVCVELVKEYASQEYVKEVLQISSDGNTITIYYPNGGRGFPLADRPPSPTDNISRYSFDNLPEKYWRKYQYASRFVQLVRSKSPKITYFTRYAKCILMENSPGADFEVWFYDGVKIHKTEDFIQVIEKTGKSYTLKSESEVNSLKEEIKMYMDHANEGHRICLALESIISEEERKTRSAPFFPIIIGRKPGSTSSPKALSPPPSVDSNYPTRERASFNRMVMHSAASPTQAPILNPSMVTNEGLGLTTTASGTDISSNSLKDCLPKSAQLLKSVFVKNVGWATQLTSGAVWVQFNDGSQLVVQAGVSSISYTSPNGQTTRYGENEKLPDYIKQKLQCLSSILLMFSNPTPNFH
Serine/threonine-protein kinase 3 (Homo sapiens), sequence (Q13188 whole entry): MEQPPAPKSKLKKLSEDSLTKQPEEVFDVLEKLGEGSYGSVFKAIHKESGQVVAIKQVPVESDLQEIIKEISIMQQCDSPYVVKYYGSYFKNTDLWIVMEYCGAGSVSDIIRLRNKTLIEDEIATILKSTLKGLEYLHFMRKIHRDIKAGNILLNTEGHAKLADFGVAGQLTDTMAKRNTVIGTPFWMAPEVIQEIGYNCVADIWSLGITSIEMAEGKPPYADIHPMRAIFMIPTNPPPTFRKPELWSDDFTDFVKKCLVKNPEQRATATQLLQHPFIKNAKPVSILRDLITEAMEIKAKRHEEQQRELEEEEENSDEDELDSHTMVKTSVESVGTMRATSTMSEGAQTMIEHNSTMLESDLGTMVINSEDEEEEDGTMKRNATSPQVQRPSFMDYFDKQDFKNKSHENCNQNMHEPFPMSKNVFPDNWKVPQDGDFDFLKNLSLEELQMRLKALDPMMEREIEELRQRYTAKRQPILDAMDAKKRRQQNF

Question: Which results are given for `CS(=O)(=O)N1CCCC(NC(=O)[C@H](CCC2CCCCC2)NC(=O)c2ccc(CNC(=O)c3cnc4ccccn34)cc2)C1` (stereo not given in full) [SR-302]?
Answer: residual activity [1]: 89%; residual activity [2]: 88%; residual activity [3]: 99%; residual activity [4]: 100%; residual activity [5]: 56%; residual activity [6]: 100%; residual activity [7]: 82%; residual activity [8]: 100%; residual activity [9]: 51%; residual activity [10]: 94%; residual activity [11]: 97%; residual activity [12]: 37%; residual activity [13]: 100%; residual activity [14]: 100%; residual activity [15]: 84%; residual activity [16]: 100%; residual activity [17]: 100%; residual activity [18]: 100%; residual activity [19]: 88%; residual activity [20]: 0%; residual activity [21]: 47%; residual activity [22]: 100%; residual activity [23]: 95%; residual activity [24]: 98%; residual activity [25]: 100%; residual activity [26]: 92%; residual activity [27]: 93%; residual activity [28]: 100%; residual activity [29]: 93%; residual activity [30]: 100%; residual activity [31]: 88%; residual activity [32]: 100%; residual activity [33]: 100%; residual activity [34]: 100%; residual activity [35]: 83%; residual activity [36]: 100%; residual activity [37]: 92%; residual activity [38]: 37%; residual activity [39]: 98%; residual activity [40]: 100%; residual activity [41]: 98%; residual activity [42]: 100%; residual activity [43]: 44%; residual activity [44]: 100%; residual activity [45]: 100%

Question: Which results are given for `CS(=O)(=O)N1CCCC(NC(=O)[C@H](CCC2CCCCC2)NC(=O)c2ccc(CNc3ncnc4c3nnn4-c3ccccc3)cc2)C1` (stereo not given in full) [SR-301]?
Answer: residual activity [1]: 63%; residual activity [2]: 95%; residual activity [3]: 66%; residual activity [4]: 82%; residual activity [5]: 100%; residual activity [6]: 78%; residual activity [7]: 82%; residual activity [8]: 100%; residual activity [9]: 100%; residual activity [10]: 90%; residual activity [11]: 87%; residual activity [12]: 89%; residual activity [13]: 100%; residual activity [14]: 100%; residual activity [15]: 93%; residual activity [16]: 100%; residual activity [17]: 100%; residual activity [18]: 100%; residual activity [19]: 98%; residual activity [20]: 100%; residual activity [21]: 81%; residual activity [22]: 84%; residual activity [23]: 100%; residual activity [24]: 100%; residual activity [25]: 100%; residual activity [26]: 100%; residual activity [27]: 97%; residual activity [28]: 100%; residual activity [29]: 100%; residual activity [30]: 72%; residual activity [31]: 94%; residual activity [32]: 100%; residual activity [33]: 97%; residual activity [34]: 100%; residual activity [35]: 90%; residual activity [36]: 100%; residual activity [37]: 100%; residual activity [38]: 100%; residual activity [39]: 100%; residual activity [40]: 100%; residual activity [41]: 76%; residual activity [42]: 100%; residual activity [43]: 68%; residual activity [44]: 100%; residual activity [45]: 94%
